In patent US8153821B2, “Compounds” (priority 2008, dated 2012):
Where two headings read alike, the source gives them in different places.

How the values were obtained:
[1] = molecular target: CYP2D6 (Homo sapiens, UniProt P10635); format: in vitro ADME
[2] = molecular target: T1, human recombinant α4β2 nicotinic receptors (Homo sapiens, UniProt P17787+P43681); test: Radioligand binding, human recombinant α4β2 in SH-EP1 cellular membranes
T1 construct: expressed in transfected cells; host or cells: SH-EP1
T1 sequence (P43681 29-627 limits assumed): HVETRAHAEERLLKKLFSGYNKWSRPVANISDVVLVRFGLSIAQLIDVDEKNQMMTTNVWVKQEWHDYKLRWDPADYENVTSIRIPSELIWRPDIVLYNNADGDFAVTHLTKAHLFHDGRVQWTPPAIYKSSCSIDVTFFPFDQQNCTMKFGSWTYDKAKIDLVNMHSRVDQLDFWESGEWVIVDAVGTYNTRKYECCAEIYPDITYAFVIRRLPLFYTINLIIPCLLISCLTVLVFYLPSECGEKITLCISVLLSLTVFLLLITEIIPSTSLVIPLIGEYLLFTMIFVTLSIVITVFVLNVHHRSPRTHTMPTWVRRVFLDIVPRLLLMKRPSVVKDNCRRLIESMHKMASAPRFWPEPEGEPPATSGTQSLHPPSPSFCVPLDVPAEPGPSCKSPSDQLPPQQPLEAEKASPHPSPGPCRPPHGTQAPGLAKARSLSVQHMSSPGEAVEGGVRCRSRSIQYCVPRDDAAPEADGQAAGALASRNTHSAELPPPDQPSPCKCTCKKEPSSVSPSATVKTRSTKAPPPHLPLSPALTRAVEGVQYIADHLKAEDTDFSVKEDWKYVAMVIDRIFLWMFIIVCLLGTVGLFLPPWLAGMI
T1 sequence (P17787 26-502): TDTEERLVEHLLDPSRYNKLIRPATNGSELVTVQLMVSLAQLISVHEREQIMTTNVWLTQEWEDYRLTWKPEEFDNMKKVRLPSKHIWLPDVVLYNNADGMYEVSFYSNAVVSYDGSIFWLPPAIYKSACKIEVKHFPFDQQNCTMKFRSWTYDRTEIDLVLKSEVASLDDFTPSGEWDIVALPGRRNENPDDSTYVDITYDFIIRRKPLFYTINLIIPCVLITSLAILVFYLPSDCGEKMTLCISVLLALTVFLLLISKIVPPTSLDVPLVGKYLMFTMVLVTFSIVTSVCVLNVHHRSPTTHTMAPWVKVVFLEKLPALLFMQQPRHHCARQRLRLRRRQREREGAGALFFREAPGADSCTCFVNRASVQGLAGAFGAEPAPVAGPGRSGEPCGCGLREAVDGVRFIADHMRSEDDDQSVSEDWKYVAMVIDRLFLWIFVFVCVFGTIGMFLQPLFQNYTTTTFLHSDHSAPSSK
Experimental: Preparation of membranes from SH-EP1/human α4β2 clonal cells: Cell pellets from 40 150 mm culture dishes were pooled, and homogenized by Polytron (Kinematica GmbH, Switzerland) in 20 milliliters of ice-cold preparative buffer. […] The resulting pellet was re-suspended in 20 mL of ice-cold preparative buffer and stored at −20° C.
Assay. On the day of the assay, the frozen membranes were thawed and spun at 48,000×g for 20 min. The supernatant was decanted and discarded. The pellet was resuspended in Dulbecco's phosphate buffered saline (PBS, Life Technologies) pH 7.4 and homogenized with the Polytron for 6 seconds. Protein concentrations were determined using a Pierce BCA Protein Assay Kit, with bovine serum albumin as the standard (Pierce Chemical Company, Rockford, Ill.).
Incubation was terminated by rapid filtration on a multi-manifold tissue harvester (Brandel, Gaithersburg, Md.) using GF/B filters presoaked in 0.33% polyethyleneimine (w/v) to reduce non-specific binding. Tissue was rinsed 3 times in PBS, pH 7.4. […] Filters were then counted to determine radioactivity bound to the membranes by liquid scintillation counting (2200CA Tri-Carb LSC, Packard Instruments, 50% efficiency or Wallac Trilux 1450 MicroBeta, 40% efficiency, Perkin Elmer).
Data were expressed as disintegrations per minute (DPMs). […]

[3] = molecular target: T2, rat native α7 receptors (Rattus norvegicus, UniProt Q05941); test: [3H]MLA binding, rat hippocampal membranes
T2 construct: rat native α7 receptors in rat hippocampal membranes; from tissue; host or cells: rat hippocampus (female Sprague-Dawley)
T2 sequence (Q05941 23-502): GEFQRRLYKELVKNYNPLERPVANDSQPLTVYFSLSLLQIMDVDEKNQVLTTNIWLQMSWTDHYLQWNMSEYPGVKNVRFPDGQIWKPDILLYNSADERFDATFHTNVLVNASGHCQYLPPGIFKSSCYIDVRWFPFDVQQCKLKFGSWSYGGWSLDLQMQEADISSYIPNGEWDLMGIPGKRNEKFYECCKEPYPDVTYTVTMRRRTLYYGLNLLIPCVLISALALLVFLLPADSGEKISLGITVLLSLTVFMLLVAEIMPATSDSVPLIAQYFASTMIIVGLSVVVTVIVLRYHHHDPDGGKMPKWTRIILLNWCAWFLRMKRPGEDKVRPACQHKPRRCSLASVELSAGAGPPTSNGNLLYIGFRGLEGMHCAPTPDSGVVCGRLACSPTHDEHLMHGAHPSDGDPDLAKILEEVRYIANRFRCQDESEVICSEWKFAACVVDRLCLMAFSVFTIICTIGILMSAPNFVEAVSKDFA
Experimental: Rats (female, Sprague-Dawley), weighing 150-250 g, were maintained on a 12 h light/dark cycle and were allowed free access to water and food supplied by PMI Nutrition International, Inc. Animals were anesthetized with 70% CO2, and then decapitated. Brains were removed and placed on an ice-cold platform. The hippocampus was removed and placed in 10 volumes (weight:volume) of ice-cold preparative buffer (137 mM NaCl, 10.7 mM KCl, 5.8 mM KH2PO4, 8 mM Na2HPO4, 20 mM HEPES (free acid), 5 mM iodoacetamide, 1.6 mM EDTA, pH 7.4); PMSF, dissolved in methanol to a final concentration of 100 μM, was added and the tissue suspension was homogenized by Polytron. […] Protein was determined by the method of Lowry et al., J. Biol. Chem. 193: 265 (1951), using bovine serum albumin as the standard.
The binding of [^3H]MLA was measured using a modification of the methods of Davies et al., Neuropharmacol. […] The binding of [^3H]MLA was determined using a 2 h incubation at 21° C. […] Non-specific binding was determined by inclusion of 50 μM non-radioactive MLA in selected wells.
The inhibition of [^3H]MLA binding by test compounds was determined by including seven different concentrations of the test compound in selected wells. […] Inhibition constants (Ki values), reported in nM, were calculated from the IC50 values using the method of Cheng et al., Biochem. Pharmacol. 22: 3099-3108 (1973).

[4] = molecular target: T3, human native ganglion receptors (Homo sapiens, UniProt P30926+P32297); test: Ca flux assay, SH-SY5Y cells; format: cell-based
T3 construct: human native ganglion-type nicotinic receptors (likely α3β4); endogenous in cells; host or cells: SH-SY5Y
T3 sequence (P32297 32-505): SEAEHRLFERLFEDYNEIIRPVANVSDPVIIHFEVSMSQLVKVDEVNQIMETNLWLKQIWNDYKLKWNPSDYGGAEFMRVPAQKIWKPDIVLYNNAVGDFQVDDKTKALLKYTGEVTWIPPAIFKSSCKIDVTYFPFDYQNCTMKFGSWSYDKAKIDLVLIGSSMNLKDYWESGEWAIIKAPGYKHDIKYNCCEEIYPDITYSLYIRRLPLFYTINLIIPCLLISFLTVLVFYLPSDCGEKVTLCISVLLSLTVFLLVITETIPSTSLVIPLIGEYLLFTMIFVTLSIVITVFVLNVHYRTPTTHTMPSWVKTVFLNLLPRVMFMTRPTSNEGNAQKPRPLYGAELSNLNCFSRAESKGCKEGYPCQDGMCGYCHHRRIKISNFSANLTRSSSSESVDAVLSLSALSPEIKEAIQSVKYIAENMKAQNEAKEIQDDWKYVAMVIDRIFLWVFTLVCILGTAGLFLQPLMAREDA
T3 sequence (P30926 22-498): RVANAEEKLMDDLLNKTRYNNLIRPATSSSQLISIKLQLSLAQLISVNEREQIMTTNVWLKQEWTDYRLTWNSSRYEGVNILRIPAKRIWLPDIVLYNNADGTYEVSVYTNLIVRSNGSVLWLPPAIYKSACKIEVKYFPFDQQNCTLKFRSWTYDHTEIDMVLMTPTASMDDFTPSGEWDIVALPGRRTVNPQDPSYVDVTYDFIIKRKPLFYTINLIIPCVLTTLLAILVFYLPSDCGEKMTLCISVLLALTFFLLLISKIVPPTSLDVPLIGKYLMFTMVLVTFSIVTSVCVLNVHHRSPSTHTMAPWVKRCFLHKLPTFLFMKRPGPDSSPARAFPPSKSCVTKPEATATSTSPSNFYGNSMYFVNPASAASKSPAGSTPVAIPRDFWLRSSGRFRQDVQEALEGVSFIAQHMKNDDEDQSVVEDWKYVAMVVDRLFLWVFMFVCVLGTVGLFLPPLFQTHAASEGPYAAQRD
Experimental: The cell line SH-SY5Y is a continuous line derived by sequential subcloning of the parental cell line, SK-N-SH, which was originally obtained from a human peripheral neuroblastoma. SH-SY5Y cells express a ganglion-like nAChR (Lukas et al., Mol. Cell. Neurosci. 4: 1 (1993)).
(R)-3-((E)-2-(Pyrrolidin-3-yl)vinyl)-5-(tetrahydropyran-4-yloxy)pyridine or a salt thereof was tested in ganglion and muscle-type nicotinic receptor ion flux assays to examine functional selectivity.

[5] = human
From the text: Therefore any variation of (R)-3-((E)-2-(pyrrolidin-3-yl)vinyl)-5-(tetrahydropyran-4-yloxy)pyridine or a salt thereof metabolism in human due to CYP polymorphism is expected to be less than 2 fold due to the significant renal clearance and low hepatic clearance.

[6] = molecular target: Pgp brain pump (Homo sapiens, UniProt P08183); format: in vitro ADME; conditions: not told
Sequence of Pgp brain pump (P08183 whole entry): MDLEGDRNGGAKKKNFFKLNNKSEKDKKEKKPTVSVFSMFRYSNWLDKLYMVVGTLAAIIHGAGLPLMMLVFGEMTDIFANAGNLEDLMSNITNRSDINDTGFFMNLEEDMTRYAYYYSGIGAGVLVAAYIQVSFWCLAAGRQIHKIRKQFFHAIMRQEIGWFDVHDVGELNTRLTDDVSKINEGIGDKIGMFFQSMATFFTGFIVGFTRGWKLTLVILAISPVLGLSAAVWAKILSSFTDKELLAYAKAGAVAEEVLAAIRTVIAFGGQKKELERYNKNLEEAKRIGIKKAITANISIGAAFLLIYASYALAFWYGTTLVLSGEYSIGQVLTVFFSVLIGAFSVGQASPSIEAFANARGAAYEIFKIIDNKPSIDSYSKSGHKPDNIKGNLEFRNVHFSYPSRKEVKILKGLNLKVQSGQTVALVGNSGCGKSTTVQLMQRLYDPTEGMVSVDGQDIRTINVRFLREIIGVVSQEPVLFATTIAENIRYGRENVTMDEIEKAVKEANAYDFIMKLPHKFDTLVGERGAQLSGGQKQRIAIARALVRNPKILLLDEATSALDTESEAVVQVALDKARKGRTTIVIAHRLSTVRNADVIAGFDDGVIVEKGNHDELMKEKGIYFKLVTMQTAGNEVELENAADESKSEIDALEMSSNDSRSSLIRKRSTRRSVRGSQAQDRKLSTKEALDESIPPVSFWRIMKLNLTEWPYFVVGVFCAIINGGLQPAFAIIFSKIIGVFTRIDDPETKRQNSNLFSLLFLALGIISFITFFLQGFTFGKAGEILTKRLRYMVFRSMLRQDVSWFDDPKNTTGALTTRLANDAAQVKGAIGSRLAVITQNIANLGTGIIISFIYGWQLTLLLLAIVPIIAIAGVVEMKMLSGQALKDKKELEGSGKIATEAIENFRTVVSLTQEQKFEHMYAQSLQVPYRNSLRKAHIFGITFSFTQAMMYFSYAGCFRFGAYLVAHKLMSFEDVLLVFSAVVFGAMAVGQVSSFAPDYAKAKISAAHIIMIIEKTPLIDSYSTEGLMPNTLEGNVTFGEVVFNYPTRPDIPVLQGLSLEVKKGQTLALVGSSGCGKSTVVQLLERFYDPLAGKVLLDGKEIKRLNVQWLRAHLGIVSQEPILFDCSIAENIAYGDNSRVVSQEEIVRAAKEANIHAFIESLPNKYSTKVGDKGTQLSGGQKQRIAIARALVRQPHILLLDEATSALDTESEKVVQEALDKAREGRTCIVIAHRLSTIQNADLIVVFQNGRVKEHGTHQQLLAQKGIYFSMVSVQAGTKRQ

[7] = molecular target: CYP2B6 (Homo sapiens, UniProt P20813); format: in vitro ADME
Sequence of CYP2B6 (P20813 whole entry): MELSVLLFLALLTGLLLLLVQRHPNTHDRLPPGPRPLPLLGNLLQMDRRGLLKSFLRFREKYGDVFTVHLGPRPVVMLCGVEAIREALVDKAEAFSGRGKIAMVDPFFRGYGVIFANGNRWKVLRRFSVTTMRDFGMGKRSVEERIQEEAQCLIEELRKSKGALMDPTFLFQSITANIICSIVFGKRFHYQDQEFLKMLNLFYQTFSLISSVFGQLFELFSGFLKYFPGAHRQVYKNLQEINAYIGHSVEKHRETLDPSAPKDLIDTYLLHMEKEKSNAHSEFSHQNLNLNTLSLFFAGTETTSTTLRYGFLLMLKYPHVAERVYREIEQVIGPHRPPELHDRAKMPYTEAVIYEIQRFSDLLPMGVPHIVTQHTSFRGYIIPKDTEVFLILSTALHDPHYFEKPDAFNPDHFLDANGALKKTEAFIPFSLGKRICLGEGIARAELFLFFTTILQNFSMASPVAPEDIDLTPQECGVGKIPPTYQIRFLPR

[8] = molecular target: T4, human native muscle-type nicotinic receptors (likely α1β1γδ) (Homo sapiens, UniProt P02708+P07510+Q07001); test: [3H]epibatidine binding, TE-671 membranes
T4 construct: human native muscle-type nicotinic receptors (likely α1β1γδ); endogenous in cells; host or cells: TE-671 (TE671/RD)

[9] = molecular target: α4β2 (Homo sapiens, UniProt P17787+P43681); test: In vitro assay at α4β2, response compared to acetylcholine
Sequence of α4β2 (P43681 29-627 limits assumed): as the sequence (P43681 29-627 limits assumed) above
Sequence of α4β2 (P17787 26-502): as the sequence (P17787 26-502) above

Sequence of CYP2D6 (P10635 whole entry): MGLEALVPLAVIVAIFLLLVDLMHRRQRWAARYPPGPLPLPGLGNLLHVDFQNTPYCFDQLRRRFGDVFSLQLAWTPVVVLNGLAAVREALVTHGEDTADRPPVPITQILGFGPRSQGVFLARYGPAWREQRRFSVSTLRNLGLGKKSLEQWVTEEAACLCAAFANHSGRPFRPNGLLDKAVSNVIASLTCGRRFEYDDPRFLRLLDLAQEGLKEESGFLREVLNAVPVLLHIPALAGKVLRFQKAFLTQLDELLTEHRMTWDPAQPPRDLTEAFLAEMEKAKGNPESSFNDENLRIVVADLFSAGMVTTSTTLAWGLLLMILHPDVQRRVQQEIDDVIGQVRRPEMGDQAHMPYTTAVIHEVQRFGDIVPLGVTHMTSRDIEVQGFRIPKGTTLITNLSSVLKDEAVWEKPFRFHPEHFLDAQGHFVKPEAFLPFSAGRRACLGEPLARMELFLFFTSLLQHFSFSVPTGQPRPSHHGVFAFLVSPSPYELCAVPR

SMILES: C(=C\[C@H]1CCNC1)/c1cncc(OC2CCOCC2)c1 [Compound A, (R)-3-((E)-2-(pyrrolidin-3-yl)vinyl)-5-(tetrahydropyran-4-yloxy)pyridine]
- time-dependent inhibition of CYP2D6 [1]: no evidence of time-dependent inhibition
- Ki [2]: 0.002 µM
- Ki [3]: > 10 µM
- Ki ([3]; read-out: Rat hippocampus (α7) Ki, [3H]methyllycaconitine (MLA), rat hippocampal membranes): > 10 µM
- EC50 [4]: 11 µM
- Human ganglionic (SH-SY5Y) Emax (Ca flux) ([4]; SH-SY5Y cells): μM, 13%
- Emax ([4]; SH-SY5Y cells, read-out: Human ganglionic (SH-SY5Y) Emax (Ca flux)): 13%
- renal clearance share of total clearance [5]: more than 50%
- Pgp substrate [6]: substrate for Pgp brain pump
- time-dependent inhibition of CYP2B6 [7]: no evidence of time-dependent inhibition
- Ki [8]: 25 µM
- response compared to acetylcholine [9]: twice as great
